Measurements published in ChEMBL document CHEMBL3875216, “Synthesis of antimicrobial glucosamides as bacterial quorum sensing mechanism inhibitors” (Bioorg Med Chem, 2017).

How the values were obtained:
[1] = system: Pseudomonas aeruginosa PA14; assay: Inhibition of quorum sensing-regulated biofilm formation in Pseudomonas aeruginosa PA14 at 2 mM after overnight incubation by crystal violet staining based assay relative to control
Escherichia coli [2] = assay: Inhibition of LuxR-dependent quorum sensing activity in Escherichia coli MT102 harboring pJBA132 assessed as inhibition of OHHL-induced GFP expression at 2 mM measured after 8 hrs by fluorescence assay relative to control
Pseudomonas aeruginosa [3] = assay: Growth inhibition of Pseudomonas aeruginosa PA14 at 2 mM after 24 hrs relative to control; conditions: 2000 µM
Escherichia coli [4] = assay: Inhibition of LuxR-dependent quorum sensing activity in Escherichia coli MT102 harboring pJBA132 assessed as inhibition of OHHL-induced GFP expression at 1 mM measured after 24 hrs by fluorescence assay relative to control
Pseudomonas aeruginosa [5] = assay: Growth inhibition of Pseudomonas aeruginosa MH602 at 500 uM after 24 hrs relative to control; conditions: MH602, 24 h, read-out: GI
Pseudomonas aeruginosa [6] = assay: Growth inhibition of Pseudomonas aeruginosa MH602 at 2 mM after 8 hrs relative to control; conditions: MH602, 8 h, read-out: GI
Pseudomonas aeruginosa [7] = assay: Inhibition of LasR-dependent quorum sensing activity in Pseudomonas aeruginosa MH602 harboring GFP-fused […] LasB promoter assessed as inhibition of 3-oxo-dodecanoyl HSL-induced GFP expression at 1 mM measured after 24 hrs by fluorescence assay relative to control
Pseudomonas aeruginosa [8] = assay: Growth inhibition of Pseudomonas aeruginosa MH602 at 1 mM after 24 hrs relative to control; conditions: MH602, 24 h, read-out: GI
Escherichia coli [9] = assay: Inhibition of LuxR-dependent quorum sensing activity in Escherichia coli MT102 harboring pJBA132 assessed as inhibition of OHHL-induced GFP expression at 500 uM measured after 8 hrs by fluorescence assay relative to control
Escherichia coli [10] = assay: Growth inhibition of Escherichia coli MT102 at 1 mM after 24 hrs relative to control; conditions: MT102, 24 h, read-out: GI
Escherichia coli [11] = assay: Inhibition of LuxR-dependent quorum sensing activity in Escherichia coli MT102 harboring pJBA132 assessed as inhibition of OHHL-induced GFP expression at 1 mM measured after 8 hrs by fluorescence assay relative to control
Pseudomonas aeruginosa [12] = assay: Growth inhibition of Pseudomonas aeruginosa MH602 at 500 uM after 8 hrs relative to control; conditions: MH602, 8 h, read-out: GI
Pseudomonas aeruginosa [13] = assay: Inhibition of LasR-dependent quorum sensing activity in Pseudomonas aeruginosa MH602 harboring GFP-fused […] LasB promoter assessed as inhibition of 3-oxo-dodecanoyl HSL-induced GFP expression at 2 mM measured after 24 hrs by fluorescence assay relative to control
Escherichia coli [14] = assay: Growth inhibition of Escherichia coli MT102 at 2 mM after 8 hrs relative to control; conditions: MT102, 8 h, read-out: GI
Escherichia coli [15] = assay: Growth inhibition of Escherichia coli MT102 at 500 uM after 8 hrs relative to control; conditions: MT102, 8 h, read-out: GI
Pseudomonas aeruginosa [16] = assay: Inhibition of LasR-dependent quorum sensing activity in Pseudomonas aeruginosa MH602 harboring GFP-fused […] LasB promoter assessed as inhibition of 3-oxo-dodecanoyl HSL-induced GFP expression at 500 uM measured after 24 hrs by fluorescence assay relative to control
[17] = system: Pseudomonas aeruginosa PA14; assay: Inhibition of quorum sensing-regulated pyocyanin production in Pseudomonas aeruginosa PA14 at 2 mM after 24 hrs relative to control
Escherichia coli [18] = assay: Growth inhibition of Escherichia coli MT102 at 1 mM after 8 hrs relative to control; conditions: MT102, 8 h, read-out: GI
Escherichia coli [19] = assay: Inhibition of LuxR-dependent quorum sensing activity in Escherichia coli MT102 harboring pJBA132 assessed as inhibition of OHHL-induced GFP expression at 2 mM measured after 24 hrs by fluorescence assay relative to control
Pseudomonas aeruginosa [20] = assay: Growth inhibition of Pseudomonas aeruginosa MH602 at 1 mM after 8 hrs relative to control; conditions: MH602, 8 h, read-out: GI
Escherichia coli [21] = assay: Growth inhibition of Escherichia coli MT102 at 500 uM after 24 hrs relative to control; conditions: MT102, 24 h, read-out: GI
Pseudomonas aeruginosa [22] = assay: Growth inhibition of Pseudomonas aeruginosa MH602 at 2 mM after 24 hrs relative to control; conditions: MH602, 24 h, read-out: GI
Escherichia coli [23] = assay: Growth inhibition of Escherichia coli MT102 at 2 mM after 24 hrs relative to control; conditions: MT102, 24 h, read-out: GI
Pseudomonas aeruginosa [24] = assay: Inhibition of LasR-dependent quorum sensing activity in Pseudomonas aeruginosa MH602 harboring GFP-fused […] LasB promoter assessed as inhibition of 3-oxo-dodecanoyl HSL-induced GFP expression at 1 mM measured after 8 hrs by fluorescence assay relative to control
Pseudomonas aeruginosa [25] = assay: Inhibition of LasR-dependent quorum sensing activity in Pseudomonas aeruginosa MH602 harboring GFP-fused […] LasB promoter assessed as inhibition of 3-oxo-dodecanoyl HSL-induced GFP expression at 500 uM measured after 8 hrs by fluorescence assay relative to control
Pseudomonas aeruginosa [26] = assay: Inhibition of LasR-dependent quorum sensing activity in Pseudomonas aeruginosa MH602 harboring GFP-fused […] LasB promoter assessed as inhibition of 3-oxo-dodecanoyl HSL-induced GFP expression at 2 mM measured after 8 hrs by fluorescence assay relative to control

Structure (SMILES): O=C(Cc1ccc(Cl)cc1)N[C@@H]1[C@@H](O)[C@H](O)[C@@H](CO)O[C@H]1O
- inhibition [1]: 15.3%
- inhibition (Escherichia coli [2]): 4.3%
- growth inhibition (GI) (Pseudomonas aeruginosa [3]): Non-Toxic
- inhibition (Escherichia coli [4]): 4.6%
- inhibition at 500 µM (Pseudomonas aeruginosa [5]): 0%
- inhibition at 2000 µM (Pseudomonas aeruginosa [6]): 0%
- inhibition (Pseudomonas aeruginosa [7]): 7%
- inhibition at 1000 µM (Pseudomonas aeruginosa [8]): 0%
- inhibition (Escherichia coli [9]): 5.6%
- inhibition at 1000 µM (Escherichia coli [10]): 7.4%
- inhibition (Escherichia coli [11]): 2%
- inhibition at 500 µM (Pseudomonas aeruginosa [12]): 1.3%
- inhibition (Pseudomonas aeruginosa [13]): 8.7%
- inhibition at 2000 µM (Escherichia coli [14]): 0%
- inhibition at 500 µM (Escherichia coli [15]): 0%
- inhibition (Pseudomonas aeruginosa [16]): 7%
- inhibition [17]: 11.9%
- inhibition at 1000 µM (Escherichia coli [18]): 0%
- inhibition (Escherichia coli [19]): 2.8%
- inhibition at 1000 µM (Pseudomonas aeruginosa [20]): 0%
- inhibition at 500 µM (Escherichia coli [21]): 11.2%
- inhibition at 2000 µM (Pseudomonas aeruginosa [22]): 0%
- inhibition at 2000 µM (Escherichia coli [23]): 4.5%
- inhibition (Pseudomonas aeruginosa [24]): 3.4%

Structure (SMILES): O=C(Cc1ccc(C(F)(F)F)cc1)N[C@@H]1[C@@H](O)[C@H](O)[C@@H](CO)O[C@H]1O
- inhibition [1]: 17.8%
- inhibition (Escherichia coli [2]): 12.8%
- inhibition (Pseudomonas aeruginosa [25]): 2.4%
- growth inhibition (GI) (Pseudomonas aeruginosa [3]): Non-Toxic
- inhibition at 500 µM (Pseudomonas aeruginosa [5]): 4.4%
- inhibition at 2000 µM (Pseudomonas aeruginosa [6]): 0%
- inhibition (Pseudomonas aeruginosa [7]): 10.3%
- inhibition at 1000 µM (Pseudomonas aeruginosa [8]): 7.8%
- inhibition (Escherichia coli [9]): 11.4%
- inhibition at 1000 µM (Escherichia coli [10]): 0%
- inhibition (Escherichia coli [11]): 10.1%
- inhibition at 500 µM (Pseudomonas aeruginosa [12]): 0%
- inhibition (Pseudomonas aeruginosa [26]): 3.3%
- inhibition (Pseudomonas aeruginosa [13]): 10.6%
- inhibition at 2000 µM (Escherichia coli [14]): 0%
- inhibition at 500 µM (Escherichia coli [15]): 0%
- inhibition (Pseudomonas aeruginosa [16]): 10.6%
- inhibition [17]: 6.6%
- inhibition at 1000 µM (Escherichia coli [18]): 0%
- inhibition at 1000 µM (Pseudomonas aeruginosa [20]): 0%
- inhibition at 500 µM (Escherichia coli [21]): 1.2%
- inhibition at 2000 µM (Pseudomonas aeruginosa [22]): 5.8%
- inhibition at 2000 µM (Escherichia coli [23]): 2.5%
- inhibition (Pseudomonas aeruginosa [24]): 7.1%

Structure (SMILES): CC(=O)OC[C@H]1O[C@@H](OC(C)=O)[C@H](NC(=O)Cc2ccc(F)cc2)[C@@H](OC(C)=O)[C@@H]1OC(C)=O
- inhibition [1]: 45.6%
- inhibition (Escherichia coli [2]): 17.1%
- inhibition (Pseudomonas aeruginosa [25]): 5.9%
- growth inhibition (GI) (Pseudomonas aeruginosa [3]): Non-Toxic
- inhibition (Escherichia coli [4]): 1.3%
- inhibition at 500 µM (Pseudomonas aeruginosa [5]): 0%
- inhibition at 2000 µM (Pseudomonas aeruginosa [6]): 0%
- inhibition (Pseudomonas aeruginosa [7]): 4.3%
- inhibition at 1000 µM (Pseudomonas aeruginosa [8]): 0%
- inhibition (Escherichia coli [9]): 14.1%
- inhibition at 1000 µM (Escherichia coli [10]): 9.4%
- inhibition (Escherichia coli [11]): 14%
- inhibition at 500 µM (Pseudomonas aeruginosa [12]): 0%
- inhibition (Pseudomonas aeruginosa [26]): 7.4%
- inhibition (Pseudomonas aeruginosa [13]): 5.7%
- inhibition at 2000 µM (Escherichia coli [14]): 0%
- inhibition at 500 µM (Escherichia coli [15]): 0%
- inhibition at 1000 µM (Escherichia coli [18]): 0%
- inhibition (Escherichia coli [19]): 61.1%
- inhibition at 1000 µM (Pseudomonas aeruginosa [20]): 0%
- inhibition at 500 µM (Escherichia coli [21]): 11.8%
- inhibition at 2000 µM (Pseudomonas aeruginosa [22]): 0%
- inhibition at 2000 µM (Escherichia coli [23]): 0%
- inhibition (Pseudomonas aeruginosa [24]): 7.3%

Structure (SMILES): CCCCCC(=O)N[C@H]1[C@H](OC(C)=O)O[C@H](COC(C)=O)[C@@H](OC(C)=O)[C@@H]1OC(C)=O
- inhibition (Escherichia coli [2]): 11.6%
- inhibition (Pseudomonas aeruginosa [25]): 3.5%
- growth inhibition (GI) (Pseudomonas aeruginosa [3]): Non-Toxic
- inhibition (Escherichia coli [4]): 6.6%
- inhibition at 500 µM (Pseudomonas aeruginosa [5]): 0%
- inhibition at 2000 µM (Pseudomonas aeruginosa [6]): 9.5%
- inhibition (Pseudomonas aeruginosa [7]): 2.6%
- inhibition at 1000 µM (Pseudomonas aeruginosa [8]): 4.5%
- inhibition at 1000 µM (Escherichia coli [10]): 10.8%
- inhibition (Escherichia coli [11]): 14.6%
- inhibition at 500 µM (Pseudomonas aeruginosa [12]): 3%
- inhibition (Pseudomonas aeruginosa [26]): 4%
- inhibition (Pseudomonas aeruginosa [13]): 22.8%
- inhibition at 2000 µM (Escherichia coli [14]): 30.3%
- inhibition at 500 µM (Escherichia coli [15]): 20.5%
- inhibition (Pseudomonas aeruginosa [16]): 3.1%
- inhibition at 1000 µM (Escherichia coli [18]): 16.9%
- inhibition (Escherichia coli [19]): 17.2%
- inhibition at 1000 µM (Pseudomonas aeruginosa [20]): 2.7%
- inhibition at 500 µM (Escherichia coli [21]): 2.2%
- inhibition at 2000 µM (Pseudomonas aeruginosa [22]): 6.8%
- inhibition at 2000 µM (Escherichia coli [23]): 15.2%
- inhibition (Pseudomonas aeruginosa [24]): 10.5%

Structure (SMILES): CC(=O)OC[C@H]1O[C@@H](OC(C)=O)[C@H](NC(=O)Cc2ccc(C(F)(F)F)cc2)[C@@H](OC(C)=O)[C@@H]1OC(C)=O
- inhibition [1]: 19.3%
- inhibition (Escherichia coli [2]): 11.3%
- inhibition (Pseudomonas aeruginosa [25]): 2.5%
- growth inhibition (GI) (Pseudomonas aeruginosa [3]): Non-Toxic
- inhibition (Escherichia coli [4]): 27.2%
- inhibition at 500 µM (Pseudomonas aeruginosa [5]): 0%
- inhibition at 2000 µM (Pseudomonas aeruginosa [6]): 0%
- inhibition (Pseudomonas aeruginosa [7]): 5.6%
- inhibition at 1000 µM (Pseudomonas aeruginosa [8]): 0%
- inhibition (Escherichia coli [9]): 8.6%
- inhibition at 1000 µM (Escherichia coli [10]): 1.1%
- inhibition (Escherichia coli [11]): 13%
- inhibition at 500 µM (Pseudomonas aeruginosa [12]): 0%
- inhibition (Pseudomonas aeruginosa [26]): 20.1%
- inhibition (Pseudomonas aeruginosa [13]): 7%
- inhibition at 2000 µM (Escherichia coli [14]): 0%
- inhibition at 500 µM (Escherichia coli [15]): 0%
- inhibition (Pseudomonas aeruginosa [16]): 5.9%
- inhibition at 1000 µM (Escherichia coli [18]): 0%
- inhibition (Escherichia coli [19]): 61.7%
- inhibition at 1000 µM (Pseudomonas aeruginosa [20]): 0%
- inhibition at 500 µM (Escherichia coli [21]): 0.9%
- inhibition at 2000 µM (Pseudomonas aeruginosa [22]): 0%
- inhibition at 2000 µM (Escherichia coli [23]): 0%
- inhibition (Pseudomonas aeruginosa [24]): 9.2%

Structure (SMILES): CC(=O)OC[C@H]1O[C@@H](OC(C)=O)[C@H](NC(=O)Cc2c[nH]c3ccccc23)[C@@H](OC(C)=O)[C@@H]1OC(C)=O
- inhibition [1]: 0.5%
- growth inhibition (GI) (Pseudomonas aeruginosa [3]): Non-Toxic
- inhibition at 500 µM (Pseudomonas aeruginosa [5]): 0%
- inhibition at 2000 µM (Pseudomonas aeruginosa [6]): 0%
- inhibition (Pseudomonas aeruginosa [7]): 12.5%
- inhibition at 1000 µM (Pseudomonas aeruginosa [8]): 0%
- inhibition at 1000 µM (Escherichia coli [10]): 1.8%
- inhibition at 500 µM (Pseudomonas aeruginosa [12]): 0%
- inhibition (Pseudomonas aeruginosa [13]): 12.5%
- inhibition at 2000 µM (Escherichia coli [14]): 0%
- inhibition at 500 µM (Escherichia coli [15]): 0%
- inhibition (Pseudomonas aeruginosa [16]): 12.1%
- inhibition [17]: 1.5%
- inhibition at 1000 µM (Escherichia coli [18]): 0%
- inhibition (Escherichia coli [19]): 24.2%
- inhibition at 1000 µM (Pseudomonas aeruginosa [20]): 0%
- inhibition at 500 µM (Escherichia coli [21]): 2.8%
- inhibition at 2000 µM (Pseudomonas aeruginosa [22]): 4.6%
- inhibition at 2000 µM (Escherichia coli [23]): 15.1%
- inhibition (Pseudomonas aeruginosa [24]): 4%
